In ChEMBL document CHEMBL3808342, “Discovery and optimization of a novel series of highly CNS penetrant M4 PAMs based on a 5,6-dimethyl-4-(piperidin-1-yl)thieno[2,3-d]pyrimidine core” (Bioorg Med Chem Lett, 2016):

Key:
[1] = biological target: T1, Muscarinic acetylcholine receptor M4 (Homo sapiens) (UniProt P08173); assay: Antagonist activity at human M4 receptor expressed in CHO cells coexpressing Gqi5 assessed as acetylcholine-induced calcium mobilization; type: functional, cell-based; set-up: scale not given: the % may be the effect or the level left
T1 sequence (whole entry): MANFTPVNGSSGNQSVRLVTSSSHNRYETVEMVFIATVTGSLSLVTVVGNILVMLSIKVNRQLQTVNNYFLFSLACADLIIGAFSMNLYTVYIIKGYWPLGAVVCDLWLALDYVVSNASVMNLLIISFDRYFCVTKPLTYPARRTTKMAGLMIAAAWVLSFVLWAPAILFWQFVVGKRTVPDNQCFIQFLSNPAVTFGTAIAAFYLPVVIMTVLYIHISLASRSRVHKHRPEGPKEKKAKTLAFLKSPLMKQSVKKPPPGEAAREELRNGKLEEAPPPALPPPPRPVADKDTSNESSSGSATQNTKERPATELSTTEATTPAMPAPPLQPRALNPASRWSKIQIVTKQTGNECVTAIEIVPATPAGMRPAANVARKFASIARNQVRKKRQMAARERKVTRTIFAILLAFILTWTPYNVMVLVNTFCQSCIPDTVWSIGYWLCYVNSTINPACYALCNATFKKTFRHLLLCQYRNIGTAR

[2] = Ratio of brain to plasma partition coefficient in Sprague-Dawley rat at 0.2 to 0.25 mg/kg, iv administered as cassette dose after 0.25 hrs; type: ADME, organism-based; settings: for Kp at 0.25 h: Sprague-Dawley, brain and plasma; for Kp: brain, 0.25 h
[3] = biological target: T2, Muscarinic acetylcholine receptor M4 (Homo sapiens, UniProt P08173); assay: Antagonist activity at human M4 receptor expressed in CHO cells coexpressing Gqi5 by calcium mobilization assay; type: functional, cell-based
T2 sequence (P08173 whole entry): T1 sequence (whole entry)

[4] = Fraction unbound in human plasma; type: ADME, cell-free
[5] = (§1) Fraction unbound in rat plasma; type: ADME, cell-free
[6] = Ratio of unbound brain-to-plasma concentration in Sprague-Dawley rat at 0.2 to 0.25 mg/kg, iv administered as cassette dose after 0.25 hrs; type: ADME, organism-based
[7] = Drug metabolism in rat hepatic microsomes assessed as hydroxylation of 5,6-dimethyl moiety; type: ADME, Liver, Microsome
[8] = biological target: T2, Muscarinic acetylcholine receptor M4; assay: Positive allosteric modulation of human M4 receptor expressed in CHO cells coexpressing Gqi5 by calcium mobilization assay; type: functional, cell-based; settings: read-out: EC50
[9] = biological target: T1, Muscarinic acetylcholine receptor M4 (Homo sapiens); assay: Positive allosteric modulation of human M4 receptor expressed in CHO cells coexpressing Gqi5 by calcium mobilization assay relative to acetylcholine; type: functional, cell-based
[10] = Drug metabolism in human hepatic microsomes assessed as compound oxidation; type: ADME, Liver, Microsome
Plasma = assay: as §1; type: ADME, cell-free
Brain = assay: Fraction unbound in rat brain homogenate; type: ADME, tissue-based
[11] = biological target: T3, Muscarinic acetylcholine receptor M5 (Homo sapiens, UniProt P08912); assay: Positive allosteric modulation of human M5 receptor expressed in CHOK1 cells by calcium mobilization assay; type: functional, cell-based, CHO-K1
T3 sequence (P08912 whole entry): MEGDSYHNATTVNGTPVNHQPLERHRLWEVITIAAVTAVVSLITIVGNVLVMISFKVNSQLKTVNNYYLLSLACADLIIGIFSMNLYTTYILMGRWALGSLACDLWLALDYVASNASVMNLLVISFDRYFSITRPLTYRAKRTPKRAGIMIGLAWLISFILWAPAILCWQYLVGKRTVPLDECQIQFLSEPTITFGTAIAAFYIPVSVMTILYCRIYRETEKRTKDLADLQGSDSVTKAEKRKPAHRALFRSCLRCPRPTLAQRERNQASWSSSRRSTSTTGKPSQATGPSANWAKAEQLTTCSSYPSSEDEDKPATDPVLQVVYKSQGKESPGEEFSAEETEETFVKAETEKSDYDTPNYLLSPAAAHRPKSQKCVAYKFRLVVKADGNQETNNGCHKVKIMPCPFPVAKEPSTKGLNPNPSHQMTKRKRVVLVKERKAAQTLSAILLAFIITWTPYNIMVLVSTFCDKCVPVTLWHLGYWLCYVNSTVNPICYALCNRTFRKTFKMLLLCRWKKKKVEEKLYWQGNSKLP

[12] = biological target: T4, Muscarinic acetylcholine receptor M4 (Rattus norvegicus, UniProt P08485); assay: Positive allosteric modulation of rat M4 receptor expressed in CHO cells coexpressing Gqi5 by calcium mobilization assay; type: functional, cell-based
T4 sequence (P08485 whole entry): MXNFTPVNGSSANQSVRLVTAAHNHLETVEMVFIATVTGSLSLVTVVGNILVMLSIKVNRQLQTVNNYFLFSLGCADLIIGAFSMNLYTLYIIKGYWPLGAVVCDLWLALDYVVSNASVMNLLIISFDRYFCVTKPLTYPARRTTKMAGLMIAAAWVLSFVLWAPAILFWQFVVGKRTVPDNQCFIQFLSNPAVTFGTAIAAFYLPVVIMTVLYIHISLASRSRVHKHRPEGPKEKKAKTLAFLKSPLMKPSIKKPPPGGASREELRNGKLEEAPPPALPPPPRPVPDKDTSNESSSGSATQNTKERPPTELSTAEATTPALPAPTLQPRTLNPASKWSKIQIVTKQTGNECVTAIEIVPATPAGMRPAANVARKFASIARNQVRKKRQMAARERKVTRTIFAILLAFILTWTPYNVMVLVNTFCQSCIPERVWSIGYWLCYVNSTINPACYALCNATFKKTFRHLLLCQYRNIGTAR

[13] = biological target: T5, Muscarinic acetylcholine receptor M1 (Homo sapiens, UniProt P11229); assay: Positive allosteric modulation of human M1 receptor expressed in CHOK1 cells by calcium mobilization assay
T5 sequence (P11229 whole entry): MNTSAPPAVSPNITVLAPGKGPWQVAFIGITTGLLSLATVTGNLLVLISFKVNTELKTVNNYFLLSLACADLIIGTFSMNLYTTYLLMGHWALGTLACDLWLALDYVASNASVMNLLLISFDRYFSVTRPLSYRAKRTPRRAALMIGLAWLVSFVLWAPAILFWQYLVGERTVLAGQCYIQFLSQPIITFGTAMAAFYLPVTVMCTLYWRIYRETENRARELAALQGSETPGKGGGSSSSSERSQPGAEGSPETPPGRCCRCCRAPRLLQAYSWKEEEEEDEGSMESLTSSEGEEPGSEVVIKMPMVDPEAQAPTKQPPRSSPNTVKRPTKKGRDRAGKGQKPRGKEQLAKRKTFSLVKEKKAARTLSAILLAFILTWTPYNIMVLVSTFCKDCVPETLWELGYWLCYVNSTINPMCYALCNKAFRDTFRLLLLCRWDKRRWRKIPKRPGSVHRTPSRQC

[14] = biological target: T6, Muscarinic acetylcholine receptor M2 (Homo sapiens, UniProt P08172); assay: Positive allosteric modulation of human M2
T6 sequence (P08172 whole entry): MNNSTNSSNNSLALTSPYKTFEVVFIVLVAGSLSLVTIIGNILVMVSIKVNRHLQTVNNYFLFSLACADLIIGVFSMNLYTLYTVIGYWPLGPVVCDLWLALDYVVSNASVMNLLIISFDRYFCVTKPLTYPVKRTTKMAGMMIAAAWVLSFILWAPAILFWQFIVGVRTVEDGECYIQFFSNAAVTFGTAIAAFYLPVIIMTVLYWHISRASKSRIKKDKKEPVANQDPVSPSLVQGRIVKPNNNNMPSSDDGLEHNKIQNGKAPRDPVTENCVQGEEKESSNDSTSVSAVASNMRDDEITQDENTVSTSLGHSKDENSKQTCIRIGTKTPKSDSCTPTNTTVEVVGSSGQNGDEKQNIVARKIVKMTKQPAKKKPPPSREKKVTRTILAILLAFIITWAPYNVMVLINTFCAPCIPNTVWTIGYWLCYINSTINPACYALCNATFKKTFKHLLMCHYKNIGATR

[15] = biological target: Muscarinic acetylcholine receptor M3 (Homo sapiens, UniProt P20309); assay: Positive allosteric modulation of human M3
Chain of Muscarinic acetylcholine receptor M3 (P20309 whole entry): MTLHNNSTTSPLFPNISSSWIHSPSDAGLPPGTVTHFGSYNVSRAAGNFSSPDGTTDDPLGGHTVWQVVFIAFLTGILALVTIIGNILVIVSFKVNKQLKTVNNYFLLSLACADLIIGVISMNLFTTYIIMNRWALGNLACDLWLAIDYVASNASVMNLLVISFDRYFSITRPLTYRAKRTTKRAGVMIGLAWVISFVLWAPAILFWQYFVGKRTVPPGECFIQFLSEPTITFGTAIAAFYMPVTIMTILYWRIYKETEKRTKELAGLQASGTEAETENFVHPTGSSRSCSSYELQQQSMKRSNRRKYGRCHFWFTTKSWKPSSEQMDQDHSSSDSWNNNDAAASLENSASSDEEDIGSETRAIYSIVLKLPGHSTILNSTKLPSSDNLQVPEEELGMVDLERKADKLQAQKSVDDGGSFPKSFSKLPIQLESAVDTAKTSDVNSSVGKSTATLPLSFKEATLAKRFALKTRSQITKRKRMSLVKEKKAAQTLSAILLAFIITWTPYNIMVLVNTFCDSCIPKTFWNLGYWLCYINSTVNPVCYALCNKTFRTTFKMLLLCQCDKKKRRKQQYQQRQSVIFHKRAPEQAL

[16] = biological target: T7, Muscarinic acetylcholine receptor M4 (Rattus norvegicus) (UniProt P08485); assay: Positive allosteric modulation of rat M4 receptor expressed in CHO cells coexpressing Gqi5 by calcium mobilization assay relative to acetylcholine; type: functional, cell-based
T7 sequence (whole entry): T4 sequence (P08485 whole entry)

SMILES | K(p,uu,brain) [6] | Kp [2] | EC50 [8] [µM] | %max [9] [%] | further results
CCCCN(c1ccc(C)nc1)C1CCN(c2ncnc3sc(C)c(C)c23)CC1 |  |  |  |  | Activity [1]: 8.7%; Kp at 0.25 h [2]: 0.2; IC50 [3]: 1.5 µM; Fu [4]: > 0.1; fraction unbound [5]: > 0.1
Cc1ccc(OC2CCN(c3ncnc4sc(C)c(C)c34)CC2)cn1 | 0.74 | 1.16 | 0.6 | 65 | Drug metabolism [7]: metabolite_detected; Drug metabolism [10]: metabolite_detected
Cc1ccc2ncnc(N3CCC(Oc4ccc(C)nc4)CC3)c2c1 | 0.62 | 0.94 | 1.2 | 49 | 
Cc1sc2ncnc(N3CCC(C(=O)N4CCCC4)CC3)c2c1C | 0.45 | 0.45 | 1.1 | 68 | Fu [4]: 0.06; Fu (Plasma): 0.04
Cc1sc2ncnc(N3CCC(Oc4ccc5c(c4)CCO5)CC3)c2c1C | 1.38 | 1.25 | 2.3 | 74 | 
Cc1sc2ncnc(N3CCC(C(=O)Nc4ccc(C(N)=O)cc4)CC3)c2c1C |  |  | 0.39 | 56 | 
Cc1sc2ncnc(N3CCC(C(=O)N4CCCc5cc(S(C)(=O)=O)ccc54)CC3)c2c1C |  |  | 0.96 | 69 | 
Cc1sc2ncnc(N3CCC(C(=O)N4CC[C@H](F)C4)CC3)c2c1C | 0.12 | 0.17 | 0.97 | 79 | Fu [4]: 0.05; Fu (Plasma): 0.12
CCCN(c1ccc(C)nc1)C1CCN(c2ncnc3sc(C)c(C)c23)CC1 |  |  |  |  | Activity [1]: 9.3%; Kp at 0.25 h [2]: 0.2; IC50 [3]: 2.4 µM; Fu [4]: > 0.1; fraction unbound [5]: > 0.1
Cc1sc2ncnc(N3CCC(Oc4ccc(F)nc4)CC3)c2c1C | 0.34 | 2.8 | 1.8 | 68 | 
Cc1sc2ncnc(N3CCC(C(=O)N4CCOCC4)CC3)c2c1C |  |  | 1.7 | 65 | 
Cc1sc2ncnc(N3CCC(C(=O)Nc4ccc(N5CCNC5=O)cc4)CC3)c2c1C |  |  | 6.2 | 40 | 
Cc1sc2ncnc(N3CCC(C(=O)Nc4ccc(F)cc4Cl)CC3)c2c1C |  |  | 1.6 | 55 | 
Cc1ccc(OC2CCN(c3nc(C)nn4ccc(C)c34)CC2)cn1 | 1.95 | 1.42 | 1.1 | 58 | 
Cc1sc2ncnc(N3CCC(Oc4ccc(Cl)nc4)CC3)c2c1C | 0.17 | 2.56 | 4.3 | 64 | 
Cc1sc2ncnc(N3CCC(C(=O)NCc4ccc(S(N)(=O)=O)cc4)CC3)c2c1C |  |  | 2.3 | 67 | 
Cc1ccc(OC2CCN(c3cc(C)nc4ccc(F)cc34)CC2)cn1 | 18.2 | 21.4 | 0.69 | 64 | 
Cc1ccc(OC2CCN(c3ncnc4ccc(F)cc34)CC2)cn1 | > 10 | 11.1 | 0.6 | 62 | Fu (Brain): 0.03; EC50 [11]: > 10 µM; EC50 [12]: 0.95 µM; EC50 [13]: > 10 µM; EC50 [14]: > 10 µM; Fu [4]: 0.16; EC50 [15]: > 10 µM; Fu (Plasma): 0.02; %max [16]: 57%
Cc1sc2ncnc(N3CCC(C(=O)N4CCSCC4)CC3)c2c1C |  |  | 0.82 | 75 | 
Cc1sc2ncnc(N3CCC(C(=O)Nc4cc(Cl)ccc4Cl)CC3)c2c1C |  |  | 3.8 | 69 | 
CNC(=O)c1ccc(NC(=O)C2CCN(c3ncnc4sc(C)c(C)c34)CC2)cc1 |  |  | 0.57 | 70 | 
Cc1sc2ncnc(N3CCC(C(=O)N4CCCC(F)(F)C4)CC3)c2c1C |  |  | 1.9 | 60 | 
Cc1sc2ncnc(N3CCC(C(N)=O)CC3)c2c1C |  |  | > 10 | 25 | 
Cc1sc2ncnc(N3CCC(C(=O)Nc4ccc(S(C)(=O)=O)cc4)CC3)c2c1C |  |  | 0.85 | 62 | 
Cc1ncc(OC2CCN(c3ncnc4sc(C)c(C)c34)CC2)cn1 | 0.65 | 1.77 | 4.4 | 60 | 
